From patent US10183914B2 (BAYER CROPSCIENCE AKTIENGESELLSCHAFT, priority 2014, dated 2019)

Key:
Veronica persica = assay: Pre-emergence herbicidal effect; assay type: in vivo; settings: 3 weeks
Description: (§1) Seeds of monocotyledonous and dicotyledonous weed plants and crop plants are laid out in wood-fiber pots in sandy loam and covered with soil. The compounds of the invention, formulated in the form of wettable powders (WP) or as emulsion concentrates (EC), are then applied to the surface of the covering soil as aqueous suspension or emulsion at a water application rate equating to 600 to 800 L/ha with addition of 0.2% wetting agent.
(§2) After the treatment, the pots are placed in a greenhouse and kept under good growth conditions for the trial plants. The damage to the trial plants is scored visually after a trial duration of 3 weeks by comparison with untreated controls (herbicidal activity in percent (%): 100% efficacy=the plants have died, 0% efficacy=like control plants).

Amaranthus retroflexus = assay: Pre-emergence herbicidal effect; assay type: in vivo; settings: 3 weeks
Description: as §1, §2

Matricaria inodora = assay: Pre-emergence herbicidal effect; assay type: in vivo; settings: 3 weeks
Description: as §1, §2

Viola tricolor = assay: Pre-emergence herbicidal effect; assay type: in vivo; settings: 3 weeks
Description: as §1, §2

Zea mays = assay: Pre-emergence herbicidal effect and crop plant compatibility; assay type: in vivo; settings: 3 weeks
Description: as §1, §2

Oryza sativa = assay: as above; assay type: in vivo; settings: 3 weeks
Description: as §1, §2

[1] = test system: Triticum aestivum (spring); assay: as above; assay type: in vivo; settings: 3 weeks
Description: as §1, §2

[2] = logp (HCOOH), physicochemical characterization
Polygonum convolvulus = assay: Pre-emergence herbicidal effect; assay type: in vivo; settings: 3 weeks
Description: as §1, §2

Setaria viridis = assay: Pre-emergence herbicidal effect; assay type: in vivo; settings: 3 weeks
Description: as §1, §2

Echinochloa crus-galli = assay: Pre-emergence herbicidal effect; assay type: in vivo; settings: 3 weeks
Description: as §1, §2

Stellaria media = assay: Pre-emergence herbicidal effect; assay type: in vivo; settings: 3 weeks
Description: as §1, §2

In the case of `COc1ccc2c(c1)CCC2Nc1ncc(C(C)=O)c(C)n1` (racemic) [1.92], the “VERPE herbicidal activity in percent” value (Veronica persica; 80 g/ha) is reported as 100%, the “VERPE herbicidal activity in percent” value (Veronica persica; 320 g/ha) is reported as 100% and the “AMARE herbicidal activity in percent” value (Amaranthus retroflexus; 80 g/ha) is reported as 100%. The “AMARE herbicidal activity in percent” value (Amaranthus retroflexus; 320 g/ha) was 100%, the “MATIN herbicidal activity in percent” value (Matricaria inodora; 320 g/ha) was 100% and the “VIOTR herbicidal activity in percent” value (Viola tricolor; 320 g/ha) was 100%. For the same compound, the “ZEAMX herbicidal activity in percent” value (Zea mays; 80 g/ha) was 20%, the “ZEAMX herbicidal activity in percent” value (Zea mays; 320 g/ha) was 20% and the “ORYSA herbicidal activity in percent” value (Oryza sativa; 320 g/ha) was 0%. For the same compound, the “TRZAS herbicidal activity in percent” value ([1]; 80 g/ha) was 0% and the “TRZAS herbicidal activity in percent” value ([1]; 320 g/ha) was 0%.
With `CC1Cc2cc(Cl)ccc2C1Nc1ncc2c(n1)CCCC2=O` (racemic) [2.108] the “logp (HCOOH)” value [2] was “oily; logp (HCOOH): 3.58; 1H-NMR (CDCl3, 400 MHZ, δ in ppm): 1.25 (d, 3H, CH3);”.
For `CC(=O)c1c(C)nc(NC2CCSc3c(F)cccc32)nc1C` (racemic) [1.65], the “logp (HCOOH)” value [2] was “solid; logp (HCOOH): 2.93; 1H-NMR (CDCl3, 400 MHZ, δ in ppm): 2.20 (m, 1H, 1H”.
For `CC(=O)c1cnc(N[C@@H]2CCc3c(C)cc(C)cc32)nc1` [1.95], the “logp (HCOOH)” value [2] was “solid; m.p.: 153.0° C.; logp (HCOOH): 3.45; 1H-NMR (CDCl3, 400 MHZ, δ in ppm):”.
In the case of `CC(=O)c1cnc(N[C@@H]2CCCc3ccccc32)nc1` [1.3, 1-{2-[(1R)-1,2,3,4-tetrahydronaphthalen-1-ylamino]pyrimidin-5-yl}ethanone], the chromatographic logP ([2]; HCOOH (formic acid)) is reported as 2.51, the “VERPE herbicidal activity in percent” value (Veronica persica; 80 g/ha) is reported as 100% and the “VERPE herbicidal activity in percent” value (Veronica persica; 320 g/ha) is reported as 100%. For the same compound, the “AMARE herbicidal activity in percent” value (Amaranthus retroflexus; 80 g/ha) was 100%, the “AMARE herbicidal activity in percent” value (Amaranthus retroflexus; 320 g/ha) was 100% and the “POLCO herbicidal activity in percent” value (Polygonum convolvulus; 80 g/ha) was 80%. The “POLCO herbicidal activity in percent” value (Polygonum convolvulus; 320 g/ha) was 100%, the “SETVI herbicidal activity in percent” value (Setaria viridis; 320 g/ha) was 80% and the “ECHCG herbicidal activity in percent” value (Echinochloa crus-galli; 80 g/ha) was 80%. For the same compound, the “ECHCG herbicidal activity in percent” value (Echinochloa crus-galli; 320 g/ha) was 100%, the “MATIN herbicidal activity in percent” value (Matricaria inodora; 80 g/ha) was 90% and the “MATIN herbicidal activity in percent” value (Matricaria inodora; 320 g/ha) was 100%. For the same compound, the “STEME herbicidal activity in percent” value (Stellaria media; 320 g/ha) was 90%, the “ZEAMX herbicidal activity in percent” value (Zea mays; 80 g/ha) was 20% and the “ORYSA herbicidal activity in percent” value (Oryza sativa; 80 g/ha) was 20%. The “TRZAS herbicidal activity in percent” value ([1]; 80 g/ha) was 20% and the “TRZAS herbicidal activity in percent” value ([1]; 320 g/ha) was 20%.
For `O=C1CCCc2nc(NC3CCOc4c(Cl)cccc43)ncc21` (racemic) [2.84], the “logp (HCOOH)” value [2] was “oily; logp (HCOOH): 2.75; 1H-NMR (CDCl3, 400 MHZ, δ in ppm): 2.15 (m, 3H, 2H”.
With `CC(C)c1ccc2c(c1)C(Nc1ncc3c(n1)CCCC3=O)CC2` (racemic) [2.107] the “logp (HCOOH)” value [2] was “oily; logp (HCOOH): 3.83; 1H-NMR (CDCl3, 400 MHZ, δ in ppm): 1.20 (d, 6H,”.
In the case of `Cc1ccc2c(c1)[C@H](Nc1ncc3c(n1)CCCC3=O)CC2` [2.41], the “logp (HCOOH)” value [2] is reported as “oily; logp (HCOOH): 3.21; 1H-NMR (CDCl3, 400 MHZ, δ in ppm): 1.95 (m, 1H, 1H”.
For `O=C1CCCc2nc(N[C@@H]3CCc4ccccc43)ncc21` [2.38], the “logp (HCOOH)” value [2] was “oily; logp (HCOOH): 4.84; 1H-NMR (CDCl3, 400 MHZ, δ in ppm): 1.85 (m, 1H, 1H”.
For `Cc1ccc2c(c1)[C@H](Nc1ncc3c(n1)CC(c1ccccc1F)CC3=O)[C@@H](C)C2` (stereo partly shown) [2.50], the “logp (HCOOH)” value [2] was “oily; logp (HCOOH): 4.86; 1H-NMR (CDCl3, 400 MHZ, δ in ppm): 1.25 (t, 3H, CH3);”, the “VERPE herbicidal activity in percent” value (Veronica persica; 320 g/ha) was 100% and the “VERPE herbicidal activity in percent” value (Veronica persica; 1280 g/ha) was 100%. The “AMARE herbicidal activity in percent” value (Amaranthus retroflexus; 1280 g/ha) was 100%, the “SETVI herbicidal activity in percent” value (Setaria viridis; 1280 g/ha) was 80% and the “VIOTR herbicidal activity in percent” value (Viola tricolor; 320 g/ha) was 90%. For the same compound, the “VIOTR herbicidal activity in percent” value (Viola tricolor; 1280 g/ha) was 90%, the “STEME herbicidal activity in percent” value (Stellaria media; 320 g/ha) was 100% and the “STEME herbicidal activity in percent” value (Stellaria media; 1280 g/ha) was 100%. The “ZEAMX herbicidal activity in percent” value (Zea mays; 320 g/ha) was 0% and the “ZEAMX herbicidal activity in percent” value (Zea mays; 1280 g/ha) was 0%.
